PubChem BioAssay AID1963958 (Molecular Pharmacology Branch, DTP, NCI, 2024)

Tested on: MDA-MB-231 multicell spheroids, viability
Experiment: Anticancer human tumor MDA-MB-231 cell line growth inhibition [PI3K];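 also: spheroids exposed to agents for seven days before reading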;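 as to viability, T/C: percent of vehicle control luminescence with DMSO treated spheroids as 100%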
Conditions: for IC50: curve of first compound; for viability, T/C: stronger effect = lower value
Summary of the method: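 We assembled tumor spheroids that included a stromal compartment of HUVEC and MSCs, then exposed them to targeted agents alone and together with PI3K pathway inhibitors. Concentration series descended by half-log from clinically achievable Cmax levels. Viability served as the endpoint.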

[1] = second compound 0.0316 µM, first compound 0.0316 µM
[2] = second compound 0.0316 µM, first compound 0.1 µM
[3] = second compound 0.0316 µM, first compound 0.316 µM
[4] = second compound 0.0316 µM, first compound 1 µM
[5] = second compound 0.0316 µM, first compound 3.16 µM
[6] = second compound 0.0316 µM, first compound 10 µM
[7] = second compound 0.1 µM, first compound 0.0316 µM
[8] = second compound 0.1 µM, first compound 0.1 µM
[9] = second compound 0.1 µM, first compound 0.316 µM
[10] = second compound 0.1 µM, first compound 1 µM
[11] = second compound 0.1 µM, first compound 3.16 µM
[12] = second compound 0.1 µM, first compound 10 µM
[13] = second compound 0.316 µM, first compound 0.0316 µM
[14] = second compound 0.316 µM, first compound 0.1 µM
[15] = second compound 0.316 µM, first compound 0.316 µM
[16] = second compound 0.316 µM, first compound 1 µM
[17] = second compound 0.316 µM, first compound 3.16 µM
[18] = second compound 0.316 µM, first compound 10 µM
[19] = second compound 1 µM, first compound 0.0316 µM
[20] = second compound 1 µM, first compound 0.1 µM
[21] = second compound 1 µM, first compound 0.316 µM
[22] = second compound 1 µM, first compound 1 µM
[23] = second compound 1 µM, first compound 3.16 µM
[24] = second compound 1 µM, first compound 10 µM
[25] = second compound 3.16 µM, first compound 0.0316 µM
[26] = second compound 3.16 µM, first compound 0.1 µM
[27] = second compound 3.16 µM, first compound 0.316 µM
[28] = second compound 3.16 µM, first compound 1 µM
[29] = second compound 3.16 µM, first compound 3.16 µM
[30] = second compound 3.16 µM, first compound 10 µM
[31] = second compound 10 µM, first compound 0.0316 µM
[32] = second compound 10 µM, first compound 0.1 µM
[33] = second compound 10 µM, first compound 0.316 µM
[34] = second compound 10 µM, first compound 1 µM
[35] = second compound 10 µM, first compound 3.16 µM
[36] = second compound 10 µM, first compound 10 µM

With `CC1(C)CCC(CN2CCN(c3ccc(C(=O)NS(=O)(=O)c4ccc(NCC5CCOCC5)c([N+](=O)[O-])c4)c(Oc4cnc5[nH]ccc5c4)c3)CC2)=C(c2ccc(Cl)cc2)C1` + Cc1nc(NC(=O)N2CCCC2C(N)=O)sc1-c1ccnc(C(C)(C)C(F)(F)F)c1 as the compound, how does the IC50 (second compound 0.0316 µM) read?
Its IC50 is 6.18 µM.

And the IC50 (second compound 0.1 µM)?
Its IC50 is 5.98 µM.

And the IC50 (second compound 0.316 µM)?
The IC50 was 5.8 µM.

And the IC50 (second compound 1 µM)?
The IC50 was 4.92 µM.

And the IC50 (second compound 3.16 µM)?
The IC50 was 4.36 µM.

And the IC50 (second compound 10 µM)?
Its IC50 is 4.29 µM.

What about the viability, T/C [1] of the same compound?
The viability, T/C was 93.7%.

What about the viability, T/C [2] of the same compound?
The viability, T/C was 101%.

And the viability, T/C [3]?
The viability, T/C was 96%.

What about the viability, T/C [4] of the same compound?
The viability, T/C was 101%.

What about the viability, T/C [5] of the same compound?
Its viability, T/C is 107%.

And the viability, T/C [6]?
The viability, T/C was 14.4%.

What about the viability, T/C [7] of the same compound?
Its viability, T/C is 89.2%.

What about the viability, T/C [8] of the same compound?
Its viability, T/C is 90.3%.

What about the viability, T/C [9] of the same compound?
The viability, T/C was 87.7%.

What about the viability, T/C [10] of the same compound?
Its viability, T/C is 90.8%.

And the viability, T/C [11]?
The viability, T/C was 97%.

And the viability, T/C [12]?
Its viability, T/C is 16.8%.

And the viability, T/C [13]?
Its viability, T/C is 77.9%.

And the viability, T/C [14]?
The viability, T/C was 79.6%.

And the viability, T/C [15]?
The viability, T/C was 79.2%.

What about the viability, T/C [16] of the same compound?
The viability, T/C was 79.6%.

What about the viability, T/C [17] of the same compound?
Its viability, T/C is 83.5%.

And the viability, T/C [18]?
Its viability, T/C is 22.9%.

What about the viability, T/C [19] of the same compound?
The viability, T/C was 72.5%.

And the viability, T/C [20]?
The viability, T/C was 73.4%.

What about the viability, T/C [21] of the same compound?
The viability, T/C was 71.7%.

And the viability, T/C [22]?
Its viability, T/C is 73.4%.

And the viability, T/C [23]?
Its viability, T/C is 74%.

What about the viability, T/C [24] of the same compound?
The viability, T/C was 13.1%.

And the viability, T/C [25]?
Its viability, T/C is 69.8%.

What about the viability, T/C [26] of the same compound?
The viability, T/C was 65.9%.

What about the viability, T/C [27] of the same compound?
Its viability, T/C is 67.7%.

What about the viability, T/C [28] of the same compound?
Its viability, T/C is 72.7%.

And the viability, T/C [29]?
The viability, T/C was 66%.

What about the viability, T/C [30] of the same compound?
The viability, T/C was 8.11%.

What about the viability, T/C [31] of the same compound?
The viability, T/C was 65.8%.

What about the viability, T/C [32] of the same compound?
Its viability, T/C is 67.4%.

And the viability, T/C [33]?
The viability, T/C was 58.5%.

What about the viability, T/C [34] of the same compound?
Its viability, T/C is 63.1%.

What about the viability, T/C [35] of the same compound?
The viability, T/C was 62%.

What about the viability, T/C [36] of the same compound?
Its viability, T/C is 16.7%.

How did the IC50 (second compound 0.0316 µM) turn out when `C[C@@H](NC(=O)c1ncnc(N)c1Cl)c1ncc(C(=O)Nc2cc(C(F)(F)F)c(Cl)cn2)s1` + Cc1nc(NC(=O)N2CCCC2C(N)=O)sc1-c1ccnc(C(C)(C)C(F)(F)F)c1 was run?
The IC50 was > 10 µM.

What about the IC50 (second compound 0.1 µM) of the same compound?
The IC50 was 3.77 µM.

And the IC50 (second compound 0.316 µM)?
The IC50 was 0.86 µM.

What about the IC50 (second compound 1 µM) of the same compound?
The IC50 was 0.352 µM.

What about the IC50 (second compound 3.16 µM) of the same compound?
The IC50 was 0.0947 µM.

And the IC50 (second compound 10 µM)?
The IC50 was < 0.0316 µM.

What about the viability, T/C [1] of the same compound?
Its viability, T/C is 112%.

What about the viability, T/C [2] of the same compound?
Its viability, T/C is 77.8%.

And the viability, T/C [3]?
The viability, T/C was 75%.

What about the viability, T/C [4] of the same compound?
The viability, T/C was 72.1%.

And the viability, T/C [5]?
The viability, T/C was 61.3%.

And the viability, T/C [6]?
The viability, T/C was 44.9%.

And the viability, T/C [7]?
The viability, T/C was 99.4%.

And the viability, T/C [8]?
Its viability, T/C is 77.2%.

And the viability, T/C [9]?
The viability, T/C was 61.8%.

And the viability, T/C [10]?
The viability, T/C was 67.7%.

What about the viability, T/C [11] of the same compound?
Its viability, T/C is 53.6%.

And the viability, T/C [12]?
Its viability, T/C is 41.3%.

And the viability, T/C [13]?
The viability, T/C was 81%.

What about the viability, T/C [14] of the same compound?
The viability, T/C was 63.7%.

What about the viability, T/C [15] of the same compound?
Its viability, T/C is 53.9%.

What about the viability, T/C [16] of the same compound?
Its viability, T/C is 50.2%.

And the viability, T/C [17]?
The viability, T/C was 49.9%.

And the viability, T/C [18]?
The viability, T/C was 37.1%.

And the viability, T/C [19]?
Its viability, T/C is 74.8%.

What about the viability, T/C [20] of the same compound?
The viability, T/C was 61%.

And the viability, T/C [21]?
Its viability, T/C is 47.1%.

What about the viability, T/C [22] of the same compound?
Its viability, T/C is 44.8%.

And the viability, T/C [23]?
Its viability, T/C is 38.8%.

What about the viability, T/C [24] of the same compound?
Its viability, T/C is 29.2%.

And the viability, T/C [25]?
Its viability, T/C is 60.2%.

What about the viability, T/C [26] of the same compound?
Its viability, T/C is 48.7%.

What about the viability, T/C [27] of the same compound?
The viability, T/C was 40.6%.

What about the viability, T/C [28] of the same compound?
The viability, T/C was 37.7%.

And the viability, T/C [29]?
Its viability, T/C is 35.7%.

What about the viability, T/C [30] of the same compound?
The viability, T/C was 27.4%.

And the viability, T/C [31]?
The viability, T/C was 42.3%.

And the viability, T/C [32]?
Its viability, T/C is 37.2%.

And the viability, T/C [33]?
The viability, T/C was 32.3%.

And the viability, T/C [34]?
The viability, T/C was 30.9%.

What about the viability, T/C [35] of the same compound?
Its viability, T/C is 24.6%.

What about the viability, T/C [36] of the same compound?
Its viability, T/C is 14.9%.

What does the source list for `Cn1ncnc1[C@H]1c2n[nH]c(=O)c3cc(F)cc(c23)N[C@@H]1c1ccc(F)cc1` + Cc1nc(NC(=O)N2CCCC2C(N)=O)sc1-c1ccnc(C(C)(C)C(F)(F)F)c1?
IC50 (second compound 0.0316 µM): > 0.1 µM; IC50 (second compound 0.1 µM): > 0.1 µM; IC50 (second compound 0.316 µM): > 0.1 µM; IC50 (second compound 1 µM): > 0.1 µM; IC50 (second compound 3.16 µM): > 0.1 µM; IC50 (second compound 10 µM): > 0.1 µM; viability, T/C (second compound 0.0316 µM, first compound 0.000316 µM): 89.3%; viability, T/C (second compound 0.0316 µM, first compound 0.001 µM): 88.9%; viability, T/C (second compound 0.0316 µM, first compound 0.00316 µM): 86.8%; viability, T/C (second compound 0.0316 µM, first compound 0.01 µM): 83.4%; viability, T/C [1]: 79%; viability, T/C [2]: 72.6%; viability, T/C (second compound 0.1 µM, first compound 0.000316 µM): 88.4%; viability, T/C (second compound 0.1 µM, first compound 0.001 µM): 82%; viability, T/C (second compound 0.1 µM, first compound 0.00316 µM): 77.5%; viability, T/C (second compound 0.1 µM, first compound 0.01 µM): 68.7%; viability, T/C [7]: 65%; viability, T/C [8]: 63.2%; viability, T/C (second compound 0.316 µM, first compound 0.000316 µM): 67.2%; viability, T/C (second compound 0.316 µM, first compound 0.001 µM): 75.2%; viability, T/C (second compound 0.316 µM, first compound 0.00316 µM): 65.6%; viability, T/C (second compound 0.316 µM, first compound 0.01 µM): 64.1%; viability, T/C [13]: 59.7%; viability, T/C [14]: 53.5%; viability, T/C (second compound 1 µM, first compound 0.000316 µM): 68.3%; viability, T/C (second compound 1 µM, first compound 0.001 µM): 66%; viability, T/C (second compound 1 µM, first compound 0.00316 µM): 65.1%; viability, T/C (second compound 1 µM, first compound 0.01 µM): 60%; viability, T/C [19]: 55.2%; viability, T/C [20]: 49.7%; viability, T/C (second compound 3.16 µM, first compound 0.000316 µM): 64.5%; viability, T/C (second compound 3.16 µM, first compound 0.001 µM): 63.4%; viability, T/C (second compound 3.16 µM, first compound 0.00316 µM): 64.5%; viability, T/C (second compound 3.16 µM, first compound 0.01 µM): 54%; viability, T/C [25]: 54.6%; viability, T/C [26]: 50.4%; viability, T/C (second compound 10 µM, first compound 0.000316 µM): 66%; viability, T/C (second compound 10 µM, first compound 0.001 µM): 63.4%; viability, T/C (second compound 10 µM, first compound 0.00316 µM): 56%; viability, T/C (second compound 10 µM, first compound 0.01 µM): 59.8%; viability, T/C [31]: 54.4%; viability, T/C [32]: 48.8%
